Measurements taken from patent US12516056B2, “Compounds for inhibition of janus kinase 1” (MANKIND PHARMA LTD., priority 2019, dated 2026).
Counter-ions that a name gives are not always drawn. Like-named read-outs stand apart in the source and are kept apart here.

Legend:
[1] = target: T1, Recombinant JAK2 (Homo sapiens, UniProt O60674); experiment: JAK biochemical assay (LANCE Ultra TR-FRET), JAK2; conditions: recombinant JAK2, TR-FRET; read-out: Biochemical Assay (μM) JAK2
T1 construct: purchased Carna Biosciences
Procedure, shortened: (§1)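 Kinase reactions ran in buffer of 50 mM HEPES pH 7.5 with 1 mM EGTA, 10 mM MgCl2, 2 mM DTT and 0.01% Tween-20, using recombinant enzyme. Phosphorylated ULight substrate was detected by TR-FRET, and compound effect expressed as % inhibition against vehicle.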

[2] = target: T2, Recombinant TYK2 (Homo sapiens, UniProt P29597); experiment: JAK biochemical assay (LANCE Ultra TR-FRET), TYK2; conditions: recombinant TYK2, TR-FRET; read-out: Biochemical Assay (μM) TYK2
T2 construct: purchased Carna Biosciences
Procedure, shortened: as §1

[3] = target: T3, Recombinant JAK1 (Homo sapiens, UniProt P23458); experiment: JAK biochemical assay (LANCE Ultra TR-FRET), JAK1; conditions: recombinant JAK1, TR-FRET; read-out: Biochemical Assay (μM) JAK1
T3 construct: purchased Carna Biosciences
Procedure, shortened: as §1

[4] = tested on: STAT5 phosphorylation by IL-2 in HT-2 cells; experiment: STAT5 phosphorylation by IL-2 in HT-2 cells (HTRF); assay type: cell-based; conditions: IL-2 50 U/ml, pSTAT5 HTRF, read-out: Cell Based Assay (μM) HT-2/IL-2/pSTAT5
Procedure: HT-2 cells were starved […] in RPMI phenol red with 10% fetal bovine serum for 4 hours in CO2 incubator maintained at 37° c. Compounds were diluted in DMSO and added to 96 well plate containing a final density of 1,20,000 cells per well. Cells and compounds are incubated for 30 minutes in CO2 incubator maintained at 37° C. and final DMSO concentration in cell based assay was 0.2%. Human recombinant cytokine, IL-2 (50 U/ml) was added to the plate containing cells and compound and incubated for 20 minutes with gentle tapping/shaking at every 5 minutes once. Compound mediated effects on STAT5 phosphorylation was measured in the lysates prepared by using CISBIO pSTAT5 detection kit by HTRF method. Background signal obtained from cells which were not activated with cytokines, was subtracted from vehicle controls and compound treated wells.

[5] = tested on: STAT3 phosphorylation by IL-6 in TF-1 cells; experiment: JAK cellular assay: STAT3 phosphorylation by IL-6 in TF-1 cells (HTRF); assay type: cell-based; conditions: Homo sapiens, TF-1, TF-1 cells, IL-6 30 ng/ml, pSTAT3 HTRF; read-out: Cell Based Assay (μM) TF-1/IL-6/pSTAT3
Procedure, shortened: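 Phospho-STAT3 (IL-6, 30 ng/ml) and phospho-STAT5 (GMCSF, 5 ng/ml) read by HTRF in lysates after 20 min cytokine exposure, minus unstimulated-cell background. Cells were serum-starved overnight, plated at 120,000/well, given compound 30 min at 37 °C beforehand; DMSO 0.2% final.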

[6] = target: T4, Recombinant JAK3 (Homo sapiens, UniProt P52333); experiment: JAK biochemical assay (LANCE Ultra TR-FRET), JAK3; conditions: recombinant JAK3, TR-FRET; read-out: Biochemical Assay (μM) JAK3
T4 construct: purchased Carna Biosciences
T4 sequence (P52333 1-1124): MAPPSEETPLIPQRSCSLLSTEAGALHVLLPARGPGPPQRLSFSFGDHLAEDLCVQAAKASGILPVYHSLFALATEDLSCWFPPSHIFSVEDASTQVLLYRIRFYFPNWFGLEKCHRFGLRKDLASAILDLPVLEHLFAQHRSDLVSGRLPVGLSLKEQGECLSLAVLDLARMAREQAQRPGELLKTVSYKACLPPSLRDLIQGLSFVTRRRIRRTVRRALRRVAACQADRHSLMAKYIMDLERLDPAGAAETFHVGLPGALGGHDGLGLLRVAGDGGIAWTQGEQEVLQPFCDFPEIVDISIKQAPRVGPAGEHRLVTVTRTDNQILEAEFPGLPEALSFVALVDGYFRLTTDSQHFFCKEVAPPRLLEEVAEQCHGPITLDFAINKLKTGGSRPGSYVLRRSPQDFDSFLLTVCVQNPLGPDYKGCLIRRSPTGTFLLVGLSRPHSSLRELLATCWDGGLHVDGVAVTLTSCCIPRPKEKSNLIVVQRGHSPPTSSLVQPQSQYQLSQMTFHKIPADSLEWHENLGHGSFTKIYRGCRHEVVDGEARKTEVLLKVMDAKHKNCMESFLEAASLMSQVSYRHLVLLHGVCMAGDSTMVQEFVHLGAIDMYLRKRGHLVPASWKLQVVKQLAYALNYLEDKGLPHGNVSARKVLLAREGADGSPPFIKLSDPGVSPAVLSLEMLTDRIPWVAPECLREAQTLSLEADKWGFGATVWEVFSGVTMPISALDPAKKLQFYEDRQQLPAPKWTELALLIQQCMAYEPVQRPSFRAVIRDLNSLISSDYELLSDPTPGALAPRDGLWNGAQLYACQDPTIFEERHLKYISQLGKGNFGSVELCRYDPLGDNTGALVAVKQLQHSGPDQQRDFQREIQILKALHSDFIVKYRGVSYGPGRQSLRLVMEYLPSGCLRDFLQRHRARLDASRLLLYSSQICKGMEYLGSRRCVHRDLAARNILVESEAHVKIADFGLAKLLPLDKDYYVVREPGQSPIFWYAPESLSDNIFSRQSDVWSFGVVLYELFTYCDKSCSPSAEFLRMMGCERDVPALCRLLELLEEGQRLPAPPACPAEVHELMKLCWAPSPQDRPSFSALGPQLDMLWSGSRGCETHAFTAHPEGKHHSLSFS
Procedure, shortened: as §1

T1 sequence (O60674 whole entry): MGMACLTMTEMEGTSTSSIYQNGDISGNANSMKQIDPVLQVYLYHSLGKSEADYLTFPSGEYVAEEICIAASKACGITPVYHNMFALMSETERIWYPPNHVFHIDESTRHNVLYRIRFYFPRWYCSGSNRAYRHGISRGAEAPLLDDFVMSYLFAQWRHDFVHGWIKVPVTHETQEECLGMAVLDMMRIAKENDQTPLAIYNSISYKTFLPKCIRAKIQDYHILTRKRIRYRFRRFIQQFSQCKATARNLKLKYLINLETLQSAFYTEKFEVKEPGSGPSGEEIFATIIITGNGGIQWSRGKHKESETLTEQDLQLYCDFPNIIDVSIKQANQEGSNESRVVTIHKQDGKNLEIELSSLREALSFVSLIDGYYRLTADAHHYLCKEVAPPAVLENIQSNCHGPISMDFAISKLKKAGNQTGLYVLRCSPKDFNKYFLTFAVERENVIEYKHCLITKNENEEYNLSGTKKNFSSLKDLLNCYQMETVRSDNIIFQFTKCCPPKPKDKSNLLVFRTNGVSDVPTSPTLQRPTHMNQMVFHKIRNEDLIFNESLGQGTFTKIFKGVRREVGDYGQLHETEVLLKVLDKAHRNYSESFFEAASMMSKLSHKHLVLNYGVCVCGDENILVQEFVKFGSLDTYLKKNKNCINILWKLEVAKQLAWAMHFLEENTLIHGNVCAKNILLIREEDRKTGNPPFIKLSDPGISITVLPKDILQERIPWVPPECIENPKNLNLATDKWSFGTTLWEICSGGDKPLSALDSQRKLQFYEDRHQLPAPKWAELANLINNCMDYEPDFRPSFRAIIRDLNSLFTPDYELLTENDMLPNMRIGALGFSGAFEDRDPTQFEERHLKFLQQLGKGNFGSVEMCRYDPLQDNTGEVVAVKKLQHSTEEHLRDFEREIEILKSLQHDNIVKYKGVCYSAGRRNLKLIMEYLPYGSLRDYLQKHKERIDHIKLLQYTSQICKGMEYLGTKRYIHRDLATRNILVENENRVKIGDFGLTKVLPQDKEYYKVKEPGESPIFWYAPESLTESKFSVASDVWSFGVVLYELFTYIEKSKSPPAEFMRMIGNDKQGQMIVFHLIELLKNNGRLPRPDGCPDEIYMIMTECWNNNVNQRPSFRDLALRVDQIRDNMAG
T2 sequence (P29597 whole entry): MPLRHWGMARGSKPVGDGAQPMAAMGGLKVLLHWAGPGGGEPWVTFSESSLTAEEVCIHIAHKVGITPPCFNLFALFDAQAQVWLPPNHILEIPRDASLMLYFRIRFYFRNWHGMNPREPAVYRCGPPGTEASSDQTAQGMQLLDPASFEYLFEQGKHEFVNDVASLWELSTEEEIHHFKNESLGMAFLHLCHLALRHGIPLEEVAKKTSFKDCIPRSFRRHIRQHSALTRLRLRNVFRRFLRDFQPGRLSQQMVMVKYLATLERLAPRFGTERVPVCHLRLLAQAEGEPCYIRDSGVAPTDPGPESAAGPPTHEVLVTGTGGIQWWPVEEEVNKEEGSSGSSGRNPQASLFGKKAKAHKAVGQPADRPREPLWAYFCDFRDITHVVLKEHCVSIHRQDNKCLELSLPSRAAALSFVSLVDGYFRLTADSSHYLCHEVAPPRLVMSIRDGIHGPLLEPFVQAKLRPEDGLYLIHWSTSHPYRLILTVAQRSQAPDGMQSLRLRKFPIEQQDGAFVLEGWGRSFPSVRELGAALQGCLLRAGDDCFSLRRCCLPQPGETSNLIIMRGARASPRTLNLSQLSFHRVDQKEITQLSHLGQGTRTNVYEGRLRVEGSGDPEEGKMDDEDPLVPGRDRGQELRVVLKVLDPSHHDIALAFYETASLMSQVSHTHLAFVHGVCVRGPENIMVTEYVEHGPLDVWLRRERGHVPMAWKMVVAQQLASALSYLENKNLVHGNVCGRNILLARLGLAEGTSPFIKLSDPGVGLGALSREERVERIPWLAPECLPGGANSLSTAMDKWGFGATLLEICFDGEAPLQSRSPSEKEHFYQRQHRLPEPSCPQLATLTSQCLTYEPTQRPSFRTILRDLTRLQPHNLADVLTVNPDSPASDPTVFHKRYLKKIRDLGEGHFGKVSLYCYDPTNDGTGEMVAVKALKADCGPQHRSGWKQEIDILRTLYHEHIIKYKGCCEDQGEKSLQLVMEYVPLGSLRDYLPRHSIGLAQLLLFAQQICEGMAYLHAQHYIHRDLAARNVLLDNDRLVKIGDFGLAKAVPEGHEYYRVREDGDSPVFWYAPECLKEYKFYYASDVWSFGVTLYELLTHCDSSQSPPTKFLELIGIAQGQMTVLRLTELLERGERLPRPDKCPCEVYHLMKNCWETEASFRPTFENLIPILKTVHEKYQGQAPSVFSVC
T3 sequence (P23458 whole entry): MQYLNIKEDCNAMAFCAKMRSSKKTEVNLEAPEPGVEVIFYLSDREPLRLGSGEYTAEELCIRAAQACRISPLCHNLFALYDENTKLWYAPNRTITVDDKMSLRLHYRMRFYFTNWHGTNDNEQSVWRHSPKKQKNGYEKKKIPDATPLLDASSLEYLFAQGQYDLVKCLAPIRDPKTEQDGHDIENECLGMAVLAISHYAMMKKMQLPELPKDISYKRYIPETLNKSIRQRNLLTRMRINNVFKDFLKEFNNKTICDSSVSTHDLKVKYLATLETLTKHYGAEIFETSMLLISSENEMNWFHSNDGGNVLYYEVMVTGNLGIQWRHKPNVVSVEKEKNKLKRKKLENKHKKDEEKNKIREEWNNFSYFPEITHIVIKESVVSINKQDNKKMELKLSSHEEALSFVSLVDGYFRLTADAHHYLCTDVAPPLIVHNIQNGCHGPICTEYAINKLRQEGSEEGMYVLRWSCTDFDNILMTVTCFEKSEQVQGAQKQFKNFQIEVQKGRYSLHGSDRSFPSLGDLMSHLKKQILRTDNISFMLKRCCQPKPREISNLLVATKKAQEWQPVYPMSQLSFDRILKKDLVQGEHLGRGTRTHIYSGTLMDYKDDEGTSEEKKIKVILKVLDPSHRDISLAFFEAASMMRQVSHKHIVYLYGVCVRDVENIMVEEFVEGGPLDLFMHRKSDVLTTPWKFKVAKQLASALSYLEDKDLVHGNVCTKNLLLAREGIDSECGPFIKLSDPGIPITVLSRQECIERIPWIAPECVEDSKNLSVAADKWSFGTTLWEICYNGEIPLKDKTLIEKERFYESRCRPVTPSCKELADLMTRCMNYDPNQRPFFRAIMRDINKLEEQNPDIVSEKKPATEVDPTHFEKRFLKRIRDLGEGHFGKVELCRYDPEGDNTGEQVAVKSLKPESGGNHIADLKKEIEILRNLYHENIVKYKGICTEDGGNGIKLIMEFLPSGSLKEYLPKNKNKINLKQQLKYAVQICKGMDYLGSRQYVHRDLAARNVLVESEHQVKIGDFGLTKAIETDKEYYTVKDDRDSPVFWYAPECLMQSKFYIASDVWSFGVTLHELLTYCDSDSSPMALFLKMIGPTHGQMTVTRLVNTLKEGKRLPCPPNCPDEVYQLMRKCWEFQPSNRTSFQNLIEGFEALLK

Row | SMILES | IC50 [1] | IC50 [2] | IC50 [3] | IC50 ([4]; HT2, HT-2 cells) | IC50 [5] | IC50 [6] | IC50 ([4]; HT-2 cells)
1 | O=C(NCCC(c1ccc(-n2cc(-c3ccnc4[nH]cnc34)cn2)nc1)C(F)(F)F)C1CC1 (stereo not shown) [Example 1149, N-(3-(6-(4-(3H-imidazo[4,5-b]pyridin-7-yl)-1H-pyrazol-1-yl)pyridin-3-yl)-4,4,4-trifluorobutyl)cyclopropanecarboxamide] | > 0.1 µM | > 1 µM | < 0.1 µM | > 0.5 µM | > 0.5 µM | < 0.1 µM | 
2 | N#CCCC(c1ccc(-n2cc(-c3ccnc4[nH]cnc34)cn2)nc1)C(F)(F)F (stereo not shown) [Example 1156, 4-(6-(4-(3H-imidazo[4,5-b]pyridin-7-yl)-1H-pyrazol-1-yl)pyridin-3-yl)-5,5,5-trifluoropentanenitrile] | > 0.5 µM | > 1 µM | > 0.1 µM | > 1 µM | > 0.5 µM | > 0.5 µM | 
3 | N#CC(C(=O)NCC(F)(F)F)c1ccc(-n2cc(-c3ccnc4[nH]cnc34)cn2)nc1 (stereo not shown) [Example 1168, 2-(6-(4-(3H-imidazo[4,5-b]pyridin-7-yl)-1H-pyrazol-1-yl)pyridin-3-yl)-2-cyano-N-(2,2,2-trifluoroethyl)acetamide] | > 0.5 µM | > 1 µM | > 0.1 µM | > 1 µM | > 1 µM | > 0.1 µM | 
4 | CS(=O)(=O)CCC(c1ccc(-n2cc(-c3ccnc4[nH]cnc34)cn2)cc1)C(F)(F)F (stereo not shown) [Example 1190, 7-(1-(4-(1,1,1-trifluoro-4-(methylsulfonyl)butan-2-yl)phenyl)-1H-pyrazol-4-yl)-3H-imidazo[4,5-b]pyridine] | < 0.1 µM | > 1 µM | < 0.1 µM | 3.6 µM | 1 µM | < 0.1 µM | 
5 | N#CCC(=O)NC(c1ccc(-n2cc(-c3ccnc4[nH]cnc34)cn2)nc1)C(F)(F)F (stereo not shown) [Example 1192, N-(1-(6-(4-(3H-imidazo[4,5-b]pyridin-7-yl)-1H-pyrazol-1-yl)pyridin-3-yl)-2,2,2-trifluoroethyl)-2-cyanoacetamide] | < 0.1 µM | > 1 µM | < 0.1 µM | > 0.8 µM | > 0.8 µM | < 0.1 µM | 
6 | CNC(=O)C[C@H](c1ccc(-n2cc(-c3ccnc4[nH]cnc34)cn2)nc1)C(F)(F)F [Example 1213, (R)-3-(6-(4-(3H-imidazo[4,5-b]pyridin-7-yl)-1H-pyrazol-1-yl)pyridin-3-yl)-4,4,4-trifluoro-N-methylbutanamide] | < 0.1 µM | > 0.5 µM | < 0.1 µM | 0.7 µM | 0.55 µM | < 0.1 µM | 
7 | CNC(=O)C[C@@H](c1ccc(-n2cc(-c3ccnc4[nH]cnc34)cn2)nc1)C(F)(F)F [Example 1214, (S)-3-(6-(4-(3H-imidazo[4,5-b]pyridin-7-yl)-1H-pyrazol-1-yl)pyridin-3-yl)-4,4,4-trifluoro-N-methylbutanamide] | < 0.5 µM | > 1 µM | < 0.1 µM | > 1 µM | > 1 µM | < 0.1 µM | 
8 | O=S(=O)(CC[C@@H](c1ccc(-n2cc(-c3ccnc4[nH]cnc34)cn2)nc1)C(F)(F)F)C1CC1 [Example 1216, 7-(1-(5-((S)-4-(cyclopropylsulfonyl)-1,1,1-trifluorobutan-2-yl)pyridin-2-yl)-1H-pyrazol-4-yl)-3H-imidazo[4,5-b]pyridine] | < 0.1 µM | > 0.5 µM | < 0.1 µM | 0.51 µM | 0.28 µM | < 0.1 µM | 
9 | OC(CN1CCOCC1)(c1ccc(-n2cc(-c3ccnc4[nH]cnc34)cn2)nc1)C(F)(F)F (stereo not shown) [Example 1229, 2-(6-(4-(3H-imidazo[4,5-b]pyridin-7-yl)-1H-pyrazol-1-yl)pyridin-3-yl)-1,1,1-trifluoro-3-morpholinopropan-2-ol] | < 0.1 µM | > 1 µM | < 0.1 µM | > 1 µM | > 1 µM | < 0.1 µM | 
10 | CC(=O)N1CC(C(O)(c2ccc(-n3cc(-c4ccnc5[nH]cnc45)cn3)nc2)C(F)(F)F)C1 (stereo not shown) [Example 1236, 1-(3-(1-(6-(4-(3H-imidazo[4,5-b]pyridin-7-yl)-1H-pyrazol-1-yl)pyridin-3-yl)-2,2,2-trifluoro-1-hydroxyethyl)azetidin-1-yl)ethanone] | > 0.03 µM | > 0.1 µM |  | > 0.75 µM | > 1 µM | > 0.03 µM | 

Next, values leading:

Row | IC50 [1] | IC50 [2] | IC50 [3] | IC50 ([4]; HT2, HT-2 cells) | IC50 [5] | IC50 [6] | IC50 ([4]; HT-2 cells) | SMILES
11 | < 0.1 µM | > 1 µM | < 0.1 µM | > 1 µM | > 0.5 µM | < 0.1 µM |  | CNC(=O)CCC(c1ccc(-n2cc(-c3ccnc4[nH]cnc34)cn2)nc1)C(F)(F)F (stereo not shown) [Example 1148, 4-(6-(4-(3H-imidazo[4,5-b]pyridin-7-yl)-1H-pyrazol-1-yl)pyridin-3-yl)-5,5,5-trifluoro-N-methylpentanamide]
12 | < 0.1 µM | > 0.5 µM | < 0.1 µM |  | > 0.1 µM | < 0.1 µM | > 0.1 µM | CNCCC(c1ccc(-n2cc(-c3ccnc4[nH]cnc34)cn2)nc1)C(F)(F)F (stereo not shown) [Example 1152, 3-(6-(4-(3H-imidazo[4,5-b]pyridin-7-yl)-1H-pyrazol-1-yl)pyridin-3-yl)-4,4,4-trifluoro-N-methylbutan-1-amine]
13 | 0.01 µM | > 0.5 µM | 0.005 µM | 1.08 µM | 0.43 µM | 0.005 µM |  | CC(C)NCC[C@@H](c1ccc(-n2cc(-c3ccnc4[nH]cnc34)cn2)nc1)C(F)(F)F [Example 1207, (S)-3-(6-(4-(3H-imidazo[4,5-b]pyridin-7-yl)-1H-pyrazol-1-yl)pyridin-3-yl)-4,4,4-trifluoro-N-isopropylbutan-1-amine]
14 | 0.007 µM | 0.08 µM | 0.0026 µM | > 0.5 µM | > 0.1 µM | 0.006 µM |  | CNCC[C@@H](c1ccc(-n2cc(-c3ccnc4[nH]cnc34)cn2)nc1)C(F)(F)F [Example 1217, (S)-3-(6-(4-(3H-imidazo[4,5-b]pyridin-7-yl)-1H-pyrazol-1-yl)pyridin-3-yl)-4,4,4-trifluoro-N-methylbutan-1-amine, TFA salt]
15 | 0.06 µM | 0.19 µM |  | > 1 µM | > 1 µM | 0.023 µM |  | CC(C)C(=O)NCCC(c1ccc(-n2cc(-c3ccnc4[nH]cnc34)cn2)nc1)C(F)(F)F (stereo not shown) [Example 1247, N-(3-(6-(4-(3H-imidazo[4,5-b]pyridin-7-yl)-1H-pyrazol-1-yl)pyridin-3-yl)-4,4,4-trifluorobutyl)isobutyramide]
